1 compound from US6900344B2, “Method of preparing alkylated salicylamides via a dicarboxylate intermediate” (Emisphere Technologies, Inc., priority 2000, dated 2005) can be followed below.

SMILES strings stand for the structures.

The data set can be described thus: solubility in DMAC. The settings on record: in DMAC (dimethylacetamide).

As to `O=c1[nH]c(=O)c2ccccc2o1` [carsalam, 2H-1,3-benzoxazine-2,4(3H)-dione], the solubility result is “about 30%”.
